{"source": "ChEMBL document CHEMBL5137126", "about": "“Alliacane-Type Secondary Metabolites from Submerged Cultures of the Basidiomycete Clitocybe nebularis” (J Nat Prod, 2022)", "key": {"L929": {"test_system": "L929", "experiment": "Cytotoxicity against mouse L929 cells assessed as inhibition of cell growth at 0.0006 to 0.037 ug/ml incubated for 5 days by MTT assay", "type": "toxicity, cell-based", "settings": "l929, 120 h, dose 0.0006-0.037 µg/ml, time 5 day"}, "Wickerhamomyces anomalus": {"test_system": "Wickerhamomyces anomalus", "experiment": "Antifungal activity against Pichia anomala DSM6766 assessed as inhibition of fungal growth incubated overnight by serial dilution method", "type": "functional"}, "[1]": {"test_system": "Schizosaccharomyces pombe", "experiment": "Antifungal activity against Schizosaccharomyces pombe DSM70572 assessed as inhibition of fungal growth incubated for 48 hrs by serial dilution method", "type": "functional"}, "Rhodotorula glutinis": {"test_system": "Rhodotorula glutinis", "experiment": "Antifungal activity against Rhodotorula glutinis DSM10134 assessed as inhibition of fungal growth incubated for 48 hrs by serial dilution method", "type": "functional"}, "Mucor hiemalis": {"test_system": "Mucor hiemalis", "experiment": "Antifungal activity against Mucor hiemalis DSM2656 assessed as inhibition of fungal growth incubated overnight by serial dilution method", "type": "functional"}, "[2]": {"experiment": "Cytotoxicity against mouse L929 cells assessed as inhibition of cell growth incubated for 5 days by MTT assay", "type": "toxicity, cell-based"}, "Bacillus subtilis": {"test_system": "Bacillus subtilis", "experiment": "Antibacterial activity against Bacillus subtilis DSM 10 assessed as inhibition of bacterial growth incubated overnight by serial dilution method", "type": "functional"}, "Candida albicans": {"test_system": "Candida albicans", "experiment": "Antifungal activity against Candida albicans DSM1665 assessed as inhibition of fungal growth incubated overnight by serial dilution method", "type": "functional"}, "KB 3-1": {"test_system": "KB 3-1", "experiment": "Cytotoxicity against human KB 3-1 cells assessed as inhibition of cell growth incubated for 5 days by MTT assay", "type": "functional, cell-based", "settings": "KB 3-1, 120 h"}, "A-431": {"test_system": "A-431", "experiment": "Cytotoxicity against human A-431 cells assessed as inhibition of cell growth incubated for 5 days by MTT assay", "type": "functional, cell-based", "settings": "A-431, 120 h"}, "PC-3": {"test_system": "PC-3", "experiment": "Cytotoxicity against human PC-3 cells assessed as inhibition of cell growth incubated for 5 days by MTT assay", "type": "functional, cell-based", "settings": "PC-3, 120 h"}, "A549": {"test_system": "A549", "experiment": "Cytotoxicity against human A549 cells assessed as inhibition of cell growth incubated for 5 days by MTT assay", "type": "functional, cell-based", "settings": "A549, 120 h"}, "MCF7": {"test_system": "MCF7", "experiment": "Cytotoxicity against human MCF7 cells assessed as inhibition of cell growth incubated for 5 days by MTT assay", "type": "functional, cell-based", "settings": "MCF7, 120 h"}, "SK-OV-3": {"test_system": "SK-OV-3", "experiment": "Cytotoxicity against human SK-OV-3 cells assessed as inhibition of cell growth incubated for 5 days by MTT assay", "type": "functional, cell-based", "settings": "SK-OV-3, 120 h"}}, "data": [{"molecule": "C[C@@H]1C(=O)c2occ(CO)c2[C@]2(O)CC(C)(C)C[C@H]12", "values": [{"measurement": "Activity", "setting": "L929", "result": "Non-Toxic"}]}, {"molecule": "NYSTATIN", "values": [{"measurement": "MIC", "setting": "Wickerhamomyces anomalus", "result": 4.6, "unit": "µg/mL"}, {"measurement": "MIC", "setting": "[1]", "result": 4.2, "unit": "µg/mL"}, {"measurement": "MIC", "setting": "Rhodotorula glutinis", "result": 1, "unit": "µg/mL"}, {"measurement": "MIC", "setting": "Mucor hiemalis", "result": 9.2, "unit": "µg/mL"}]}, {"molecule": "Cc1cc2[nH]cc(C=O)c2c2c1CC(C)(C)C2", "values": [{"measurement": "MIC", "setting": "Wickerhamomyces anomalus; Hansenula anomala", "result": 33.3, "unit": "µg/mL"}, {"measurement": "MIC", "setting": "[1]", "result": 33.3, "unit": "µg/mL"}, {"measurement": "MIC", "setting": "Rhodotorula glutinis", "result": 4.2, "unit": "µg/mL"}, {"measurement": "IC50 at 5 days", "setting": "[2]", "result": 41, "unit": "µM"}, {"measurement": "MIC", "setting": "Bacillus subtilis", "result": 66.6, "unit": "µg/mL"}, {"measurement": "MIC", "setting": "Candida albicans", "result": 66.6, "unit": "µg/mL"}, {"measurement": "MIC", "setting": "Mucor hiemalis", "result": 16.6, "unit": "µg/mL"}, {"measurement": "IC50", "setting": "KB 3-1", "result": 21, "unit": "µM"}]}, {"molecule": "C/C(=C\\c1csc(C)n1)[C@H]1C[C@H]2O[C@@]2(C)CCC[C@H](C)[C@@H](O)[C@@H](C)C(=O)C(C)(C)[C@H](O)CC(=O)O1", "values": [{"measurement": "IC50", "setting": "A-431", "result": 0.0031, "unit": "µM"}, {"measurement": "IC50 at 5 days", "setting": "[2]", "result": 0.001, "unit": "µM"}, {"measurement": "IC50", "setting": "PC-3", "result": 0.003, "unit": "µM"}, {"measurement": "IC50", "setting": "A549", "result": 0.0034, "unit": "µM"}, {"measurement": "IC50", "setting": "MCF7", "result": 0.0027, "unit": "µM"}, {"measurement": "IC50", "setting": "SK-OV-3", "result": 0.0075, "unit": "µM"}, {"measurement": "IC50", "setting": "KB 3-1", "result": 0.0028, "unit": "µM"}]}, {"molecule": "CN(C)[C@@H]1C(O)=C(C(N)=O)C(=O)[C@@]2(O)C(O)=C3C(=O)c4c(O)cccc4[C@@](C)(O)[C@H]3[C@H](O)[C@@H]12", "note": "[OXYTETRACYCLINE]", "values": [{"measurement": "MIC", "setting": "Bacillus subtilis", "result": 9.2, "unit": "µg/mL"}]}, {"molecule": "C[C@@H]1C(=O)c2[nH]cc(CO)c2C2=CC(C)(C)C[C@@H]21", "values": [{"measurement": "MIC", "setting": "Rhodotorula glutinis", "result": 66.6, "unit": "µg/mL"}, {"measurement": "IC50 at 5 days", "setting": "[2]", "result": 68, "unit": "µM"}, {"measurement": "IC50", "setting": "KB 3-1", "result": 47, "unit": "µM"}]}, {"molecule": "C=C(C(=O)O)[C@]12O[C@]13CC(C)(C)C[C@@H]3[C@H](C)[C@H](O)C2=O", "values": [{"measurement": "IC50", "setting": "A-431", "result": 7, "unit": "µM"}, {"measurement": "IC50 at 5 days", "setting": "[2]", "result": 22, "unit": "µM"}, {"measurement": "IC50", "setting": "PC-3", "result": 36, "unit": "µM"}, {"measurement": "IC50", "setting": "A549", "result": 53, "unit": "µM"}, {"measurement": "IC50", "setting": "MCF7", "result": 8, "unit": "µM"}, {"measurement": "IC50", "setting": "SK-OV-3", "result": 20, "unit": "µM"}, {"measurement": "IC50", "setting": "KB 3-1", "result": 18, "unit": "µM"}]}, {"molecule": "C=C(C(=O)O)C1=C2CC(C)(C)C[C@@H]2[C@H](C)CC1=O", "values": [{"measurement": "Activity", "setting": "L929", "result": "Non-Toxic"}]}]}
